From US11596633B2, “SHP2 inhibitor compositions and methods for treating cancer” (Revolution Medicines, Inc., priority 2017, dated 2023) come the findings set out here.

Bounds are passed on as bounds.

In one assay the test system is HCT116. Briefly: 3D cell viability (CTG). The settings on record: Homo sapiens, HCT-116; HCT116, KRAS G13D, 3D culture. It counts as cell-based.
In the next assay the test system is NCI-H1792. Nature of the assay: 3D cell viability (CTG). It is filed as cell-based. The settings on record: Homo sapiens; NCI-H1792, KRAS G12C, 3D culture.
The test system of another assay is NCI-H727. Nature of the assay: 3D cell viability (CTG). It is filed as cell-based. The settings on record: Homo sapiens; NCI-H727, KRAS G12V, 3D culture.
Assay [1] has as its system H1838 NF1 LOF NSCLC cells. Nature of the assay: Cell growth, crystal violet stain. It counts as cell-based. The settings on record: 10 days.
Protocol: (§2) To evaluate cell viability in 3D culture, cells in logarithmic growth phase were plated in growth medium containing 0.65% methylcellulose at an optimum seeding density. Cells were incubated overnight prior to treatment with different concentrations of the test article. Cells were cultured for an additional seven days and cell viability assessed using the CellTiterGlo™ (CTG) reagent, according to the manufacturer's instructions. In some instances, cells were grown in 3D culture as spheroids. Briefly, 2500 cells/well were seeded in round bottom ultra-low attachment 96-well plates (Corning) in growth media supplemented with 10% fetal bovine serum and 1% penicillin/streptomycin, and allowed to form spheroids for 72 hours at 37° C. in 5% CO2. […] Following drug exposure for five days, cell viability in spheroids was determined using the CellTiter-Glo assay kit. […] After one day in culture, cells were treated with the test article, which was then replenished every three days. Cells were maintained in culture for 10 days until the control wells reached confluency at which time the cells were fixed and stained with crystal violet.
Another assay has as its system NCI-H23. Briefly: 3D cell viability (CTG). It counts as cell-based. The settings on record: Homo sapiens; NCI-H23, KRAS G12C, 3D culture.
A further assay relates to NCI-H1573. Briefly: 3D cell viability (CTG). It is filed as cell-based. Particulars: Homo sapiens; NCI-H1573, KRAS G12A, 3D culture.
The subject of the next assay is NCI-H441. Nature of the assay: 3D cell viability (CTG). It counts as cell-based. Particulars: Homo sapiens; NCI-H441, KRAS G12V, 3D culture.
Another assay concerns SNU-668. Nature of the assay: 3D cell viability (CTG). It is filed as cell-based. The settings on record: SNU668; SNU-668, KRAS Q61K, 3D culture.
The next assay concerns Cal-12T. Nature of the assay: 3D proliferation (CTG). It counts as cell-based. The settings on record: Cal-12T (Class III BRAF G466V/+).
The next assay deals with RAS-GTP in A549 cells. Briefly: RAS-GTP pulldown (Raf-RBD). It is filed as cell-based. Particulars: A549 (KRAS G12S), 6 hour and 24 hour. How it is done:
(§1) To determine the effects of small molecules on levels of activated RAS-GTPase, cell lines of interest were cultured under standard 2D culture conditions. Cells were seeded and following overnight incubation incubated at 37° C. with vehicle (DMSO) or test article(s). After an appropriate incubation period, cells were washed and cell lysis buffer added to prepare a cell lysate. The levels of Ras-GTP in the lysates were determined using affinity purification of a Raf-RBD (Ras binding domain of Raf)/GTP-Ras complex. In one approach, the Pierce Active Ras Pulldown and Detection Kit was used. Briefly, clarified lysates (500 μg total protein, quantified by BCA) were mixed with glutathione resin which had been preincubated with GST-Raf-RBD. The mixture was vortexed and incubated at 4° C. for 1 hour with gentle rocking. The resin was washed three times with lysis buffer and bound Ras-GTP eluted by addition of 2× reducing sample buffer. Eluted proteins were separated by SDS-PAGE using a 4-15% Tris-glycine gel (BioRad). Proteins were transferred to a nitrocellulose membrane for western blot using an anti-Ras antibody (Thermofisher, 1:200) and a Licor IRDye-800 anti-mouse secondary antibody (1:20,000). The Licor Odyssey CLx was used for visualization.

For another assay, the system named is p-ERK1/2 in Calu-1 cells. Briefly: p-ERK AlphaLisa SureFire. It counts as cell-based, human. Particulars: Calu-1 cells (KRAS G12C). The protocol: Cells were plated at ˜20×10^3 cells per well and following overnight incubation were washed with serum-free media. Cells were then incubated for one hour with increasing concentrations of the test article in serum-free media containing 0.2% BSA prior to termination of the assay and measurement of pERK levels in cellular lysates by AlphaLisa SureFire Ultra kit conducted according to the manufacturer's instructions.

In assay [2] the test system is MiaPaca-2 KRas G12C xenograft. Nature of the assay: Pancreatic MiaPaca-2 xenograft. It counts as in vivo, mice. From the text:
Similar methods were used to evaluate efficacy of test articles in the pancreatic MiaPaca-2 KRas^G12C xenograft model. Balb/c nude mice (6-8 weeks old) were implanted with […] MiaPaca-2 tumor cells in 50% Matrigel subcutaneously in the flank. […] Administration of test articles and study design are as described above for H358 xenograft model.

In the next assay the test system is H358 KRas G12C xenograft. Briefly: NSCLC H358 xenograft, athymic nude mice. It is filed as in vivo. The settings on record: oral administration. The protocol:
Compound A or Compound B were administered by oral gavage daily. The positive control, paclitaxel (30 mg/kg iv) in 5% ethanol, 5% cremophor EL, in 5% dextrose in deionized water was administered once every five days. Trametinib (1 mg/kg PO in 0.5% Methylcellulose+0.5% Tween 80) was administered by oral gavage daily. The study endpoint was defined as a mean tumor volume of 2000 mm^3 in the control group or 22 days, whichever came first. Mean tumor volume data are reported for all animals that remained on study.

Another assay relates to NCI-H508. Briefly: 3D proliferation (CTG). It is filed as cell-based. Particulars: NCI-H508 (Class III BRAF G596R/+).
The subject of another assay is RAS-GTP in A375 cells. Briefly: RAS-GTP pulldown (Raf-RBD). It is filed as cell-based. The settings on record: A375 (Class I BRAF V600E). How it is done:
as §1, with “glutathione resin,” for “glutathione resin”

Assay [3] relates to RAS-GTP in NCI-H1666 cells. Nature of the assay: RAS-GTP pulldown (Raf-RBD). Particulars: NCI-H1666 (Class III BRAF G466V/+). It counts as cell-based. How it is done: as §1, with “glutathione resin,” for “glutathione resin”
Assay [4] relates to RAS-GTP in NCI-H508 cells. Nature of the assay: RAS-GTP pulldown (Raf-RBD). It is filed as cell-based. Particulars: NCI-H508 (Class III BRAF G596R/+). The protocol: as §1, with “glutathione resin,” for “glutathione resin”
The test system of a further assay is RAS-GTP in MeWo cells. Nature of the assay: RAS-GTP pulldown (Raf-RBD). It is filed as cell-based. Particulars: MeWo (NF1 LOF). The protocol: as §1, with “glutathione resin,” for “glutathione resin”
The subject of the next assay is RAS-GTP in Cal-12T cells. Briefly: RAS-GTP pulldown (Raf-RBD). It counts as cell-based. The settings on record: Cal-12T (Class III BRAF G466V/+). The protocol: as §1, with “glutathione resin,” for “glutathione resin”

Protocol for HCT116: as §2
Protocol for NCI-H1573: (§3) To evaluate cell viability in 3D culture, cells in logarithmic growth phase were plated in growth medium containing 0.65% methylcellulose at an optimum seeding density. Cells were incubated overnight prior to treatment with different concentrations of the test article. Cells were cultured for an additional seven days and cell viability assessed using the CellTiterGlo™ (CTG) reagent, according to the manufacturer's instructions. In some instances, cells were grown in 3D culture as spheroids. Briefly, 2500 cells/well were seeded in round bottom ultra-low attachment 96-well plates (Corning) in growth media supplemented with 10% fetal bovine serum and 1% penicillin/streptomycin, and allowed to form spheroids for 72 hours at 37° C. in 5% CO2. […] Following drug exposure for five days, cell viability in spheroids was determined using the CellTiter-Glo assay kit.
Protocol for NCI-H1792: as §2
Protocol for NCI-H23: as §2
Protocol for NCI-H441: as §3
Protocol for NCI-H727: as §3
Protocol for SNU-668: as §3

In the case of `Nc1nc(N2CCC3(CCC[C@H]3N)CC2)cnc1Sc1ccnc(Cl)c1Cl` [Compound A], the IC50 was over 10 µM in the assay with HCT116; 1.2 µM with NCI-H1792; 0.3 µM with NCI-H727; 0.7 µM with NCI-H23; 0.2 µM in the assay with NCI-H1573; 0.1 µM in the assay with NCI-H441. The same compound yielded an IC50 with SNU-668 of over 10 µM. For the same compound, the “cell growth (crystal violet stain)” value in assay [1] is reported as “potently inhibited”.

Turning to `Cc1nc(N2CCC3(CC2)CO[C@@H](C)[C@H]3N)c(CO)nc1-c1cccc(Cl)c1Cl` [Compound B], the proliferation entry in the assay with Cal-12T and in the assay with NCI-H508 was “suppression” in each case. Further, the “RAS-GTP accumulation resulting from MEK inhibition by trametinib” value in the assay with RAS-GTP in A549 cells was “suppressed”. Besides, the “inhibition of p-ERK1/2 levels” value with p-ERK1/2 in Calu-1 cells is recorded as “concentration-dependent inhibition”. For the same compound, in assay [2] (30 mg/kg PO qd, trametinib 1 mg/kg PO, MiaPaca-2 model), the “reduction in tumor volume compared with trametinib” value was “greater than trametinib”. The tumor volume result in assay [2] (oral administration, MiaPaca-2 xenograft) is listed as “dose-dependent decrease”; in the assay on H358 KRas G12C xenograft, “dose-dependent decrease”. In addition, the RAS-GTP levels result was “failed to suppress” with RAS-GTP in A375 cells; “suppression” in assay [3]; “suppression” in [4]; “downregulation” with RAS-GTP in MeWo cells; “suppression” with RAS-GTP in Cal-12T cells.
